Format in all cases: binding
Assay [1] addresses T1, human dopamine transporter (hDAT) (Homo sapiens, UniProt Q01959).
T1 construct: expressed in transfected cells; whole cells plated on Cell-Tak coated 96 well plates
The assay is described as follows: Human dopamine transporter scintillation proximity assay, competition with [3H]-Vanoxerine. The conditions noted are these: HEK-293 cells expressing recombinant hDAT; [3H]-Vanoxerine (GBR 12909); Cheng-Prusoff. The procedure: This assay was used to determine the affinity of ligands for the dopamine transporter by competition with [^3H]-Vanoxerine.
HEK-293 cells (Tatsumi et al., Eur. J. Pharmacol. 1997, 30, 249-258) stably expressing recombinant hDAT were maintained with media (DMEM hi glucose with 10% FBS, 300 μg/ml G418 and 2 mM L-Glutamine) and incubated at 37° C. with 5% CO2. Cells were plated four hours prior to experiment by placing approximately 30,000 cells per well (in PBS) on white, opaque Cell-Tak coated 96 well plates. Extra buffer was apriated from the cell plates using an ELx405 plate washer.
^3[H] vanoxerine (GBR 12909) radioligand, specific activity approximately 59 Ci/mmol, stock concentration, 400 nM, and 50 mM Tris-HCl, 300 mM NaCl, (pH 7.4) buffers were used for Scintillation Proximity Assay IC50/Ki determination. […]
The % inhibition was calculated for each compound tested [(Compound CPM at maximum concentration-Non-Specific CPM)/Total CPM*100]. […]
(§1) [formula] where max=total binding, min=non specific binding, x=concentration (M) of the tested compound and n=Hill slope. The inhibition dissociation constant (Ki) of each compound was determined according to the method of Cheng-Prusoff and then converted into negative logarithm (pKi) of the Ki.
(In general: In a scintillation proximity assay essentially only radioactivity close to the scintillant gives light.)

For a further assay, the target named is T2, hNET transporter (Homo sapiens, UniProt P23975).
T2 construct: expressed in transfected cells; membrane preparation
T2 sequence (P23975 whole entry): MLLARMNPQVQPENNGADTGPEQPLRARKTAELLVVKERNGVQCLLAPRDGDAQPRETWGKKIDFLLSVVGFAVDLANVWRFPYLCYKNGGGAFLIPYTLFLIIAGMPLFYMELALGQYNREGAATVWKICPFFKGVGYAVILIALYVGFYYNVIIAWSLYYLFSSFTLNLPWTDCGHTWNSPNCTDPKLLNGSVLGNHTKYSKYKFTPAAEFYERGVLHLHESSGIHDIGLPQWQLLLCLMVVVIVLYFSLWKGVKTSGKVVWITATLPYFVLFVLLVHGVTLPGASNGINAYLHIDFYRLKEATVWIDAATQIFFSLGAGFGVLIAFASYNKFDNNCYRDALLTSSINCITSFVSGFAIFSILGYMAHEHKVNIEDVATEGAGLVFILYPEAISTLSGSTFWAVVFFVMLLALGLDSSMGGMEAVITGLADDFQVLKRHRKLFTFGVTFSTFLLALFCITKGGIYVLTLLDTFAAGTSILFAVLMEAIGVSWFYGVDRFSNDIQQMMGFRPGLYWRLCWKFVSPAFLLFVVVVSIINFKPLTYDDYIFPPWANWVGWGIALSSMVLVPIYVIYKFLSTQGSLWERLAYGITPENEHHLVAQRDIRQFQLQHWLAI
The assay is described as follows: Human norepinephrine transporter (hNET) scintillation proximity assay, competition with [3H]-Nisoxetine. The conditions noted are these: membranes of HEK-293 cells expressing recombinant hNET, Cheng-Prusoff. The procedure:
This assay was used to determine the affinity of ligands for the hNET transporter by competition with [^3H]-Nisoxetine. As in the hSERT assay of the above example, receptor-containing membranes were pre-coupled to the SPA beads and the binding of the appropriate radioligand to the transporter was measured. The light emission was proportional to the amount of bound radioligand, with unbound radioligand producing no signal.
HEK-293 cells (Tatsumi et al., Eur. J. Pharmacol. 1997, 30, 249-258) stably expressing recombinant hNET (Clone: HEK-hNET #2) were maintained with media (DMEM hi glucose with 10% FBS, 300 μg/ml G418 and 2 mM L-Glutamine) and incubated at 37° C. with 5% CO2. Cells were released from culture flasks using PBS for 1-2 minutes. […]
(§2) Cell membranes were prepared using a membrane preparation buffer of 50 mM TRIS (pH 7.4). […] After a second centrifugation, the pellet was re-homogenized and brought to a final volume determined during the assay. […]
^3[H] […] The mixtures were allowed to stand at room temperature for one hour, and were then counted on a Packard TopCount LCS, a generic SPA counting protocol settings (Energy Range: Low, Efficiency Mode: Normal, Region A: 1.50-35.00, Region B: 1.50-256.00, Count Time (min.): 0.40, Background Subtract: none, Half-Life Correction: no, Quench Indicator: tSIS, Platemap blank subtraction: No, Cross talk reduction: Off). […]

The target of another assay is T3, hSERT transporter (Homo sapiens, UniProt P31645).
T3 construct: expressed in transfected cells; membrane preparation
T3 sequence (P31645 whole entry): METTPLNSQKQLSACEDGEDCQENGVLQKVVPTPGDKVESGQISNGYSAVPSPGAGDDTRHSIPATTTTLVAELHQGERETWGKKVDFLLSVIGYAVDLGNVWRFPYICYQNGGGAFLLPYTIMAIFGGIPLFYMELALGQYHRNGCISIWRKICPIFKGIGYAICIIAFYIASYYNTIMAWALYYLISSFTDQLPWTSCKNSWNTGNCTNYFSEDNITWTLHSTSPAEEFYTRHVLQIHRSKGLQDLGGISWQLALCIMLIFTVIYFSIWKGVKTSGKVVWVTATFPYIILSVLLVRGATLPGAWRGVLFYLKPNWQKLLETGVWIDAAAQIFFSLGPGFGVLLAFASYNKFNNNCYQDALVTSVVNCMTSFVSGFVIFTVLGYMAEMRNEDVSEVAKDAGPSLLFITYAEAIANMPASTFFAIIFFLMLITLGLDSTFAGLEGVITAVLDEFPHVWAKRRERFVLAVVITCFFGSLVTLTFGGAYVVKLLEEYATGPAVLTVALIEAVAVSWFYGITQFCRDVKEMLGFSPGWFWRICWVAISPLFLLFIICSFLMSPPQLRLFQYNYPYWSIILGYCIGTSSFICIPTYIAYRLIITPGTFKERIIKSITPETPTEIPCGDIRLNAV
The assay is described as follows: Human serotonin transporter (hSERT) scintillation proximity assay, competition with [3H]-Citalopram. To be noted: membranes of HEK-293 cells expressing recombinant hSERT, Cheng-Prusoff. The procedure: The screening assay of this example was used to determine the affinity of ligands at the hSERT transporter by competition with [^3H]-Citalopram.
Scintillation Proximity Assay (SPA) works by bringing radioligand within close proximity to the bead's scintillant to stimulate light emission. In this assay, the receptor-containing membranes were pre-coupled to the SPA beads and the binding of the appropriate radioligand to the transporter was measured. The light emission was proportional to the amount of bound radioligand. Unbound radioligand produced no signal as a result of distant proximity to scintillant (lack of energy transfer). […]
as §2
The % inhibition was calculated for each compound tested [(Compound counts per minute (CPM) at maximum concentration-Non-Specific CPM)/Total CPM*100]. […]
as §1

This is an account of results in patent publication US7622462B2, “Benzazepine derivatives and uses thereof” (Roche Palo Alto LLC, priority 2006, dated 2009).

Molecules are shown by their SMILES.

T1 sequence (Q01959 whole entry): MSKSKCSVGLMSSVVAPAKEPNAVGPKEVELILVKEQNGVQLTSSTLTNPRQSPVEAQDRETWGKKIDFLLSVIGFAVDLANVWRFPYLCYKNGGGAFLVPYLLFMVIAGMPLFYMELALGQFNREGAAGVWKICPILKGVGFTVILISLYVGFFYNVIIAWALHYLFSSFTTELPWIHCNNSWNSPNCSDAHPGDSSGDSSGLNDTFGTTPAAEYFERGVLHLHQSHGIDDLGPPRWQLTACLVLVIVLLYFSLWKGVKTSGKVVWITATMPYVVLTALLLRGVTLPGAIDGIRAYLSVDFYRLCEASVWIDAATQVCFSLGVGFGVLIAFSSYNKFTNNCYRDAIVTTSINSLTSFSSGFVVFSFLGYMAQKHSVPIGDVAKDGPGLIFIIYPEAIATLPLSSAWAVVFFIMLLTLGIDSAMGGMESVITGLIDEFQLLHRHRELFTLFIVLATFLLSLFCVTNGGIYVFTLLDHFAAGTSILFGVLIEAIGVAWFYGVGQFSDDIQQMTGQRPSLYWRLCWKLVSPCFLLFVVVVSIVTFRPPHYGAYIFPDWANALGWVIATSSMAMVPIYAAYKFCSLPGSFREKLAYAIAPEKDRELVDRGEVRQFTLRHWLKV

As to `c1ccc2c(c1)CNCCC2c1ccc2[nH]ccc2c1` (stereo not drawn) [5-(1H-Indol-5-yl)-2,3,4,5-tetrahydro-1H-benzo[c]azepine], the Ki was approximately 2 nM in assay [1], approximately 10 nM at hNET transporter and approximately 126 nM at hSERT transporter.

A word on the Ki: it is the dissociation constant of the complex between target and ligand, obtained from inhibition or displacement.
